{
  "source": "paper PMC4850288",
  "about": "“Crystal Structure and Activity Studies of the C11 Cysteine Peptidase from Parabacteroides merdae in the Human Gut Microbiome” (The Journal of Biological Chemistry, 2016)",
  "key": {"PmC11 [1]": {"biological_target": "T1, PmC11 (Parabacteroides merdae, UniProt A0ABF7PHE6)", "T1 construct": "gene PARMER_00083; signal peptide Met1-Asn22 deleted (for structure); N-terminal tag MGSDKIHHHHHHENLYFQ/G, kept in assays; E. coli BL21 Star (DE3); monomer", "T1 sequence (A0ABF7PHE6 23-147)": "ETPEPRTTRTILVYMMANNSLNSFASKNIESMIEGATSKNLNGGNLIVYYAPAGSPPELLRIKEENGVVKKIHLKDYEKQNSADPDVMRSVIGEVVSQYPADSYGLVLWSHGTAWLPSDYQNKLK", "T1 sequence (A0ABF7PHE6 148-375)": "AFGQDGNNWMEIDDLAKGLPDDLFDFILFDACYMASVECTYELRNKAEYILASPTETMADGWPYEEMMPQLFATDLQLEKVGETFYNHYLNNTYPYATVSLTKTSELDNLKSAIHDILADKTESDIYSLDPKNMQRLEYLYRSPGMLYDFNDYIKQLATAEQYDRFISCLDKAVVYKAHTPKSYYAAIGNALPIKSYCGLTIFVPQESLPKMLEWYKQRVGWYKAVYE", "experiment": "fluorogenic AMC release, Lineweaver-Burk", "format": "biochemical", "settings": "pH 8.0, 20 mM Tris, 150 mM NaCl, 37 °C; enzyme preincubated 16 h at 37 °C; 0-600 μM substrate", "experimental": "(§1) fluorogenic AMC release, Lineweaver-Burk on PmC11 | Km and Vmax of PmC11 and K147A mutant were determined by monitoring change in the fluorescence"}, "PmC11 [2]": {"biological_target": "T2, PmC11 (Parabacteroides merdae, UniProt A0ABF7PHE6, K147A, form not given)", "T2 construct": "gene PARMER_00083; signal peptide Met1-Asn22 deleted (for structure); N-terminal tag MGSDKIHHHHHHENLYFQ/G, kept in assays; E. coli BL21 Star (DE3); monomer", "T2 sequence (A0ABF7PHE6 23-147 K147A)": "T1 sequence (A0ABF7PHE6 23-147) with K125A", "T2 sequence (A0ABF7PHE6 148-375)": "T1 sequence (A0ABF7PHE6 148-375)", "experiment": "fluorogenic AMC release, Lineweaver-Burk", "format": "biochemical", "settings": "pH 8.0, 20 mM Tris, 150 mM NaCl, 37 °C; enzyme preincubated 16 h at 37 °C; 0-600 μM substrate; unprocessed cleavage-site mutant", "experimental": "as §1"}},
  "note": "Where a chain is given by its changes, count along the chain named.",
  "data": [
    {"smiles": "Cc1cc(=O)oc2cc(NC(=O)[C@H](CCCNC(=N)N)NC(=O)c3ccccc3)ccc12", "note": "[Bz-R-AMC, benzoyl-L-Arg-4-methylcoumaryl-7-amide]", "values": [
      {"measurement": "Km", "setting": "PmC11 [1]", "value": "274 ± 6", "unit": "µM"},
      {"measurement": "Km", "setting": "PmC11 [2]", "value": "301 ± 239", "unit": "µM"}
    ]}
  ]
}
